For one test, the target named is Serine/threonine-protein kinase 16 (Homo sapiens) (UniProt O75716). In words: STK16 binders by thermal stabilization, biophysical, recombinant human kinase, DSF (AID 395). Particulars: SYPRO orange, at 10 µM, protein 2 µM, buffer 10 mM HEPES, active compounds read high.
Sequence of Serine/threonine-protein kinase 16 (Homo sapiens) (O75716 whole entry, looked up): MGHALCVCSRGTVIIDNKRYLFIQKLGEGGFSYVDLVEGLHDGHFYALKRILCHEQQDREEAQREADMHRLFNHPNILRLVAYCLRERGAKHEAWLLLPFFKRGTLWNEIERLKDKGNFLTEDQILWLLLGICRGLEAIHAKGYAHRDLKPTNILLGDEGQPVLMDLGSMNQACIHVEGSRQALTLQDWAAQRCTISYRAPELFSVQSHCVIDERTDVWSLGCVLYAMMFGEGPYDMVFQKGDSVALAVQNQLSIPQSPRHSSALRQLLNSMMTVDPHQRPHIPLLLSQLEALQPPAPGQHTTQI
For the compound `c1ccc(-c2cnc3ccc(NCc4cccs4)nn23)cc1`, the Tm shift is 3.62 °C.

`Clc1cccc(Nc2ccn3ncc(-c4cccnc4)c3n2)c1`: the Tm shift was 5.48 °C.

Consider `O=C1c2ccccc2-c2n[nH]c3cccc1c23`, for which the Tm shift is 6.85 °C.

As to `Cc1cc(C=C2C(=O)C=CC2=O)cc(C)c1O`, the Tm shift was 3.24 °C.

Consider `c1csc(-c2cnc3ccc(NCC4CC4)nn23)c1`, for which the Tm shift is 4.3 °C.

`O=c1c(O)c(-c2ccc(O)c(O)c2)oc2cc(O)cc(O)c12`: the Tm shift was 4.78 °C.

As to `O=c1[nH]c2ncc(-c3cccnc3)nc2n1C1CCCC1`, the Tm shift was 5.29 °C.

As for `Fc1ccc(CNc2ccc3ncc(-c4ccco4)n3n2)cc1`, the Tm shift was 4.18 °C.

For `COC(=O)c1cnc2oc3ccc(O)cc3c2c1-c1ccccc1`, the Tm shift was 5.35 °C.

Regarding `COc1ccc2c(c1)/C(=C/c1cnc[nH]1)C(=O)N2`, the Tm shift was 4.35 °C.

With `CC(C)C(CO)Nc1nc(Nc2cccc(Cl)c2)c2ncn(C(C)C)c2n1` (stereo unspecified), the Tm shift is 3.15 °C.

On to `Nc1ncnc2c1c(I)cn2[C@@H]1O[C@H](CO)C(O)C1O` (stereo partly specified), for which the Tm shift was 3.88 °C.

`Clc1ccc(-c2cnn3ccc(NCc4cccnc4)nc23)cc1`: the Tm shift was 3.85 °C.

Consider `Clc1cccc(Nc2ccn3ncc(-c4ccsc4)c3n2)c1`, for which the Tm shift is 3.69 °C.

With `O=C1Nc2ccccc2/C1=C/c1ccc[nH]1`, the Tm shift was 4.28 °C.

On to `CC(C)(C)c1nc2c3cc[nH]c(=O)c3c3cc(F)ccc3c2[nH]1`, for which the Tm shift is 3.46 °C.

Turning to `CC1N=C2SC=CN2C(=O)C1CCN1CCC(=C(c2ccccc2)c2ccc(F)cc2)CC1` (stereo unspecified), the Tm shift was 3.67 °C.

Take `Clc1cccc(-c2cnc3ccc(NC4CCOCC4)nn23)c1`: the Tm shift was 4 °C.

For the compound `O=c1cc(-c2ccc(O)cc2)oc2cc(O)cc(O)c12`, the Tm shift was 4.78 °C.

Take `O=Nc1c(-c2c(O)[nH]c3ccccc23)[nH]c2ccccc12`: the Tm shift is 5.13 °C.

For the compound `O=C1Nc2ccccc2/C1=C\c1cnc[nH]1`, the Tm shift is 7.49 °C.

Staying with this test, now noted: SYPRO orange, at 10 µM, protein 2 µM, buffer 10 mM HEPES, pH 7.5, NaCl 150 mM, active compounds read high.
As to `Cc1cc(Nc2nc(-c3ccccc3)nc3ccccc23)n[nH]1`, the Tm shift is 11.1 °C.

Turning to `CC(O)O/N=C1/C(c2c(O)[nH]c3cc(Br)ccc23)=Nc2ccccc21` (stereo unspecified), the Tm shift was 4.2 °C.

As for `Cc1nc(N)sc1-c1ccnc(Nc2cccc(-n3oo3)c2)n1`, the Tm shift was 10.7 °C.

Turning to `O=C(Nc1cccc(Nc2nccc(Nc3cccc(C(F)(F)F)c3)n2)c1)C1CC1`, the Tm shift was 5.75 °C.

For the compound `N=C(N)SCCCn1cc(C2=C(c3c[nH]c4ccccc34)C(=O)NC2=O)c2ccccc21`, the Tm shift was 4.3 °C.

For `NCCCn1cc(C2=C(c3c[nH]c4ccccc34)C(=O)NC2=O)c2ccccc21`, the Tm shift is 4.96 °C.

As for `O=c1c(O)c(-c2ccc(O)c(O)c2)oc2cc(O)cc(O)c12`, the Tm shift was 4.75 °C.

For `O=C1NC(=O)C(c2c[nH]c3ccccc23)=C1c1c[nH]c2ccccc12`, the Tm shift was 3.4 °C.

With `O=Nc1c(-c2c(O)[nH]c3ccc(S(O)(O)O)cc23)[nH]c2ccccc12`, the Tm shift was 5.7 °C.

Take `O=c1cc(-c2ccccc2)oc2cc(O)cc(O)c12`: the Tm shift was 5.74 °C.

Turning to `NS(=O)(=O)c1ccc(Nc2nc(OCC3CCCCC3)c3[nH]cnc3n2)cc1`, the Tm shift is 4.1 °C.

In the case of `Nc1cccc(-c2cc3c(Oc4cccc(O)c4)ncnc3[nH]2)c1`, the Tm shift is 5.9 °C.

Consider `O=C1NCc2c1c1c3ccccc3[nH]c1c1[nH]c3ccccc3c21`, for which the Tm shift was 3.9 °C.

For `OCC(O)CCO/N=C1/C(c2c(O)[nH]c3ccccc23)=Nc2ccccc21` (stereo unspecified), the Tm shift was 11.7 °C.

As for `O=c1[nH]c(O)c2c1c1c3ccccc3nc1n1cncc21`, the Tm shift was 5.4 °C.

For the compound `Cc1c(O)cc(O)c2c1OC(c1ccc(O)c(O)c1)C(=O)C2=O` (stereo unspecified), the Tm shift was 3.29 °C.

For the compound `NC(=O)Nc1sc(-c2ccccc2)cc1C(N)=O`, the Tm shift was 4.5 °C.

In the case of `O=C(c1ccc(Nc2nccc(-c3cc4ccccc4s3)n2)cc1)N1CCC(N2CCCC2)CC1`, the Tm shift is 8.9 °C.

Turning to `O=c1c(O)c(-c2ccc(O)c(O)c2)oc2cc(O)ccc12`, the Tm shift is 8.54 °C.

For `CC1N=C2SC=CN2C(=O)C1CCN1CCC(=C(c2ccccc2)c2ccc(F)cc2)CC1` (stereo unspecified), the Tm shift was 3.2 °C.

Consider `Cn1cc(/C=C2\C(=O)Nc3ccc(S(N)(=O)=O)cc32)c2ccccc21`, for which the Tm shift is 4.8 °C.

Regarding `O=c1cc(-c2ccc(O)c(O)c2)oc2cc(O)cc(O)c12`, the Tm shift is 4.82 °C.

`CC(C)c1nn(-c2c(Cl)cccc2Cl)c2nc(Cc3ccc(OCCO)cc3)[nH]c(=O)c12`: the Tm shift is 3.5 °C.

`COc1cc(C2Oc3cc(O)cc(O)c3C(=O)C2=O)ccc1O` (stereo unspecified): the Tm shift is 3.97 °C.

Regarding `Nc1nc(Nc2ccc(S(N)(=O)=O)cc2)nn1C(=S)Nc1c(F)cccc1F`, the Tm shift is 7.8 °C.

Regarding `N#C/C(=C1\Nc2ccccc2S1)c1ccnc(NCCc2cccnc2)n1`, the Tm shift is 5.5 °C.

For the compound `O=C1C(=O)C(c2cccc(O)c2)Oc2ccccc21` (stereo unspecified), the Tm shift was 4.41 °C.

For the compound `O=Nc1c(-c2c(O)[nH]c3ccc(I)cc23)[nH]c2ccccc12`, the Tm shift was 4.2 °C.

With `O=c1c(O)c(-c2ccc(O)cc2)oc2cc(O)cc(O)c12`, the Tm shift was 3.87 °C.

Regarding `CCN(CC)CCNC(=O)c1c(C)[nH]c(/C=C2\C(=O)Nc3ccc(Cl)cc32)c1C`, the Tm shift is 6 °C.

The values above are taken from PubChem BioAssay AID395 (SGCOxCompounds, 2006).
